Laboratory results published in patent US8952024B2, “Herbicidal pyrimidone derivatives” (E I du Pont de Nemours and Company, priority 2009, dated 2015).
Read-outs that look alike come from different tables or passages of the source.

Legend:
Type in all cases: in vivo
[1] = test system: Italian ryegrass (Lolium multiflorum); assay: Test B pre-/postemergence plant response
Summary of the method: (§1)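 Seeds were sown in loam soil/sand blend and treated preemergence with compound in non-phytotoxic solvent mixture containing surfactant; postemergence sprays, same formulation, went onto plants 2 to 18 cm (1- to 4-leaf stage) in peat-based planting medium. Greenhouse 13 to 15 days, then visual rating versus untreated controls, 0 (no effect) to 100 (complete control).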

[2] = test system: goosegrass (Eleusine indica); assay: Test B pre-/postemergence plant response
Summary of the method: as §1

[3] = test system: Surinam grass (Brachiaria decumbens); assay: Test B pre-/postemergence plant response
Summary of the method: as §1

[4] = test system: woolly cupgrass (Eriochloa villosa); assay: Test B pre-/postemergence plant response
Summary of the method: as §1

[5] = test system: downy bromegrass (Bromus tectorum); assay: Test B pre-/postemergence plant response
Summary of the method: as §1

[6] = test system: large crabgrass (Digitaria sanguinalis); assay: Test B pre-/postemergence plant response
Summary of the method: as §1

[7] = test system: velvetleaf (Abutilon theophrasti); assay: Test B pre-/postemergence plant response
Summary of the method: as §1

[8] = test system: blackgrass (Alopecurus myosuroides); assay: Test B pre-/postemergence plant response
Summary of the method: as §1

[9] = test system: morningglory (Ipomoea coccinea); assay: Test B pre-/postemergence plant response
Summary of the method: as §1

[10] = test system: wheat (Triticum aestivum); assay: Test B pre-/postemergence plant response
Summary of the method: as §1

[11] = test system: yellow nutsedge (Cyperus esculentus); assay: Test B pre-/postemergence plant response
Summary of the method: as §1

[12] = test system: pigweed (Amaranthus retroflexus); assay: Test A pre-/postemergence plant response; details: Amaranthus retroflexus, 240 h, read-out: Plant response rating, Pigweed; for pest or weed control at 125 g/ha: 125 g ai/ha; for pest or weed control at 500 g/ha: 500 g ai/ha, approx. ten days
Summary of the method: (§2)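 Injury was scored visually after roughly ten days against untreated controls, 0 = no effect, 100 = complete control. Test chemicals in a surfactant-containing non-phytotoxic solvent were sprayed either onto soil preemergence or onto one- to two-leaf, 2–10 cm plants postemergence.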

[13] = test system: barnyardgrass (Echinochloa crus-galli); assay: Test A pre-/postemergence plant response; details: Echinochloa crus-galli, 240 h, read-out: Plant response rating, Barnyardgrass; for pest or weed control at 125 g/ha: 125 g ai/ha; for pest or weed control at 500 g/ha: 500 g ai/ha, approx. ten days
Summary of the method: as §2

[14] = 62 g ai/ha, postemergence, 0 is no effect, 100 is complete control, 13 to 15 days
[15] = post-emergence, Postemergence, 0 to 100 scale where 0 is no effect and 100 is complete control
[16] = post-emergence, Postemergence, 0 to 100 scale, 0 = no effect, 100 = complete control
[17] = pre-emergence, Preemergence, 0 to 100 scale, 0 = no effect, 100 = complete control
[18] = pre-emergence, Preemergence, visual injury, 0 to 100 scale (0 no effect, 100 complete control)

O=C1CCCC(O)=C1C(=O)c1cnc(-c2ccccc2)n(C2CCCCC2)c1=O [Compound 128, 3-cyclohexyl-5-[(2-hydroxy-6-oxo-1-cyclohexen-1-yl)carbonyl]-2-phenyl-4(3H)-pyrimidinone]
Ryegrass, Italian plant response rating (0 to 100 scale) [1, 14]: 0 | pest or weed control at 31 g/ha ([1]; Lolium multiflorum, post-emergence, Postemergence, 31 g ai/ha, 0 to 100 scale (0 no effect, 100 complete control), read-out: Plant response rating, Ryegrass, Italian): 0% | pest or weed control at 125 g/ha ([1]; Lolium multiflorum, post-emergence, Postemergence, 125 g ai/ha, scale 0 to 100 (0 no effect, 100 complete control), read-out: Plant response rating, Ryegrass, Italian): 5% | pest or weed control at 250 g/ha ([1]; Lolium multiflorum, post-emergence, Postemergence, 250 g ai/ha, scale 0 to 100 (0 no effect, 100 complete control), 13 to 15 days, read-out: Plant response rating, Ryegrass, Italian): 30% | Goosegrass plant response rating (0 to 100 scale) [2, 14]: 95 | pest or weed control at 31 g/ha ([2]; Eleusine indica, post-emergence, Postemergence, 31 g ai/ha, 0 to 100 scale (0 no effect, 100 complete control), read-out: Plant response rating, Goosegrass): 90% | pest or weed control at 125 g/ha ([2]; Eleusine indica, post-emergence, Postemergence, 125 g ai/ha, scale 0 to 100 (0 no effect, 100 complete control), read-out: Plant response rating, Goosegrass): 98% | pest or weed control at 250 g/ha ([2]; Eleusine indica, post-emergence, Postemergence, 250 g ai/ha, scale 0 to 100 (0 no effect, 100 complete control), 13 to 15 days, read-out: Plant response rating, Goosegrass): 98% | Surinam Grass plant response rating (0 to 100 scale) [3, 14]: 80 | pest or weed control at 31 g/ha ([3]; Urochloa decumbens, post-emergence, Postemergence, 31 g ai/ha, 0 to 100 scale (0 no effect, 100 complete control), read-out: Plant response rating, Surinam Grass): 50% | pest or weed control at 125 g/ha ([3]; Urochloa decumbens, post-emergence, Postemergence, 125 g ai/ha, scale 0 to 100 (0 no effect, 100 complete control), read-out: Plant response rating, Surinam Grass): 85% | pest or weed control at 250 g/ha ([3]; Urochloa decumbens, post-emergence, Postemergence, 250 g ai/ha, scale 0 to 100 (0 no effect, 100 complete control), 13 to 15 days, read-out: Plant response rating, Surinam Grass): 85% | Cupgrass, Woolly plant response rating (0 to 100 scale) [4, 14]: 90 | pest or weed control at 31 g/ha ([4]; Eriochloa villosa, post-emergence, Postemergence, 31 g ai/ha, 0 to 100 scale (0 no effect, 100 complete control), read-out: Plant response rating, Cupgrass, Woolly): 85% | pest or weed control at 125 g/ha ([4]; Eriochloa villosa, post-emergence, Postemergence, 125 g ai/ha, scale 0 to 100 (0 no effect, 100 complete control), read-out: Plant response rating, Cupgrass, Woolly): 90% | pest or weed control at 250 g/ha ([4]; Eriochloa villosa, post-emergence, Postemergence, 250 g ai/ha, scale 0 to 100 (0 no effect, 100 complete control), 13 to 15 days, read-out: Plant response rating, Cupgrass, Woolly): 95% | Bromegrass, Downy plant response rating (0 to 100 scale) [5, 14]: 35 | pest or weed control at 31 g/ha ([5]; Bromus tectorum, post-emergence, Postemergence, 31 g ai/ha, 0 to 100 scale (0 no effect, 100 complete control), read-out: Plant response rating, Bromegrass, Downy): 30% | pest or weed control at 125 g/ha ([5]; Bromus tectorum, post-emergence, Postemergence, 125 g ai/ha, scale 0 to 100 (0 no effect, 100 complete control), read-out: Plant response rating, Bromegrass, Downy): 40% | pest or weed control at 250 g/ha ([5]; Bromus tectorum, post-emergence, Postemergence, 250 g ai/ha, scale 0 to 100 (0 no effect, 100 complete control), 13 to 15 days, read-out: Plant response rating, Bromegrass, Downy): 50% | Crabgrass, Large plant response rating (0 to 100 scale) [6, 14]: 85 | pest or weed control at 31 g/ha ([6]; Digitaria sanguinalis, post-emergence, Postemergence, 31 g ai/ha, 0 to 100 scale (0 no effect, 100 complete control), read-out: Plant response rating, Crabgrass, Large): 85% | pest or weed control at 125 g/ha ([6]; Digitaria sanguinalis, post-emergence, Postemergence, 125 g ai/ha, scale 0 to 100 (0 no effect, 100 complete control), read-out: Plant response rating, Crabgrass, Large): 95% | pest or weed control at 250 g/ha ([6]; Digitaria sanguinalis, post-emergence, Postemergence, 250 g ai/ha, scale 0 to 100 (0 no effect, 100 complete control), 13 to 15 days, read-out: Plant response rating, Crabgrass, Large): 100% | Velvetleaf plant response rating (0 to 100 scale) [7, 14]: 95 | pest or weed control at 31 g/ha ([7]; Abutilon theophrasti, post-emergence, 360 h, Postemergence, 31 g ai/ha, 0 to 100 scale (0 no effect, 100 complete control), read-out: Plant response rating, Velvetleaf): 90% | pest or weed control at 125 g/ha ([7]; Abutilon theophrasti, post-emergence, 360 h, Postemergence, 125 g ai/ha, scale 0 to 100 (0 no effect, 100 complete control), read-out: Plant response rating, Velvetleaf): 95% | pest or weed control at 250 g/ha ([7]; Abutilon theophrasti, post-emergence, 360 h, Postemergence, 250 g ai/ha, scale 0 to 100 (0 no effect, 100 complete control), 13 to 15 days, read-out: Plant response rating, Velvetleaf): 100% | Blackgrass plant response rating (0 to 100 scale) [8, 14]: 5 | pest or weed control at 31 g/ha ([8]; Alopecurus myosuroides, post-emergence, 360 h, Postemergence, 31 g ai/ha, 0 to 100 scale (0 no effect, 100 complete control), read-out: Plant response rating, Blackgrass): 5% | pest or weed control at 125 g/ha ([8]; Alopecurus myosuroides, post-emergence, 360 h, Postemergence, 125 g ai/ha, scale 0 to 100 (0 no effect, 100 complete control), read-out: Plant response rating, Blackgrass): 10% | pest or weed control at 250 g/ha ([8]; Alopecurus myosuroides, post-emergence, 360 h, Postemergence, 250 g ai/ha, scale 0 to 100 (0 no effect, 100 complete control), 13 to 15 days, read-out: Plant response rating, Blackgrass): 15% | Morningglory plant response rating (0 to 100 scale) [9, 14]: 80 | pest or weed control at 31 g/ha ([9]; Ipomoea, post-emergence, Postemergence, 31 g ai/ha, 0 to 100 scale (0 no effect, 100 complete control), read-out: Plant response rating, Morningglory): 80% | pest or weed control at 125 g/ha ([9]; Ipomoea, post-emergence, Postemergence, 125 g ai/ha, scale 0 to 100 (0 no effect, 100 complete control), read-out: Plant response rating, Morningglory): 90% | pest or weed control at 250 g/ha ([9]; Ipomoea, post-emergence, Postemergence, 250 g ai/ha, scale 0 to 100 (0 no effect, 100 complete control), 13 to 15 days, read-out: Plant response rating, Morningglory): 90% | Wheat plant response rating (0 to 100 scale) [10, 14]: 0 | plant injury at 31 g/ha ([10]; Triticum aestivum, post-emergence, Postemergence, 31 g ai/ha, 0 to 100 scale (0 no effect, 100 complete control), read-out: Plant response rating, Wheat): 0% | plant injury at 125 g/ha ([10]; Triticum aestivum, post-emergence, Postemergence, 125 g ai/ha, scale 0 to 100 (0 no effect, 100 complete control), read-out: Plant response rating, Wheat): 0% | plant injury at 250 g/ha ([10]; Triticum aestivum, post-emergence, Postemergence, 250 g ai/ha, scale 0 to 100 (0 no effect, 100 complete control), 13 to 15 days, read-out: Plant response rating, Wheat): 5% | Nutsedge, Yellow plant response rating (0 to 100 scale) [11, 14]: 35 | pest or weed control at 31 g/ha ([11]; Cyperus, post-emergence, Postemergence, 31 g ai/ha, 0 to 100 scale (0 no effect, 100 complete control), read-out: Plant response rating, Nutsedge, Yellow): 20% | pest or weed control at 125 g/ha ([11]; Cyperus, post-emergence, Postemergence, 125 g ai/ha, scale 0 to 100 (0 no effect, 100 complete control), read-out: Plant response rating, Nutsedge, Yellow): 60% | pest or weed control at 250 g/ha ([11]; Cyperus, post-emergence, Postemergence, 250 g ai/ha, scale 0 to 100 (0 no effect, 100 complete control), 13 to 15 days, read-out: Plant response rating, Nutsedge, Yellow): 60% | pest or weed control at 125 g/ha [12, 15]: 100% | pest or weed control at 500 g/ha [12, 16]: 100% | pest or weed control at 125 g/ha [12, 17]: 80% | pest or weed control at 500 g/ha [12, 18]: 100% | pest or weed control at 125 g/ha [13, 15]: 100% | pest or weed control at 500 g/ha [13, 16]: 100% | pest or weed control at 125 g/ha [13, 17]: 10% | pest or weed control at 500 g/ha [13, 18]: 100%
